Patent US10308639B2, “Phosphatidylinositol 3-kinase inhibitors” (Gilead Sciences, Inc., priority 2014, dated 2019)
Read-outs that look alike come from different tables or passages of the source.

Experiments:
Type in all cases: biochemical
PI3Kγ = biological target: T1, PI3Kγ (Homo sapiens, UniProt P48736); test: TR-FRET enzymatic activity assay, PI3Kγ; settings: read-out: PI3Kγ IC50
T1 construct: made in house
Summary of the method: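 TR-FRET read-out of enzyme activity, run separately for each PI3K isoform.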

PI3Kδ = biological target: T2, PI3Kδ (Homo sapiens, UniProt O00329); test: TR-FRET enzymatic activity assay, PI3Kδ
T2 construct: made in house

PI3Kβ = biological target: T3, PI3Kβ (Homo sapiens, UniProt P42338); test: TR-FRET enzymatic activity assay, PI3Kβ
T3 construct: made in house

[1] = Table 2, TR-FRET, 2x Km ATP, 30 minutes at 25° C.

T1 sequence (P48736 whole entry): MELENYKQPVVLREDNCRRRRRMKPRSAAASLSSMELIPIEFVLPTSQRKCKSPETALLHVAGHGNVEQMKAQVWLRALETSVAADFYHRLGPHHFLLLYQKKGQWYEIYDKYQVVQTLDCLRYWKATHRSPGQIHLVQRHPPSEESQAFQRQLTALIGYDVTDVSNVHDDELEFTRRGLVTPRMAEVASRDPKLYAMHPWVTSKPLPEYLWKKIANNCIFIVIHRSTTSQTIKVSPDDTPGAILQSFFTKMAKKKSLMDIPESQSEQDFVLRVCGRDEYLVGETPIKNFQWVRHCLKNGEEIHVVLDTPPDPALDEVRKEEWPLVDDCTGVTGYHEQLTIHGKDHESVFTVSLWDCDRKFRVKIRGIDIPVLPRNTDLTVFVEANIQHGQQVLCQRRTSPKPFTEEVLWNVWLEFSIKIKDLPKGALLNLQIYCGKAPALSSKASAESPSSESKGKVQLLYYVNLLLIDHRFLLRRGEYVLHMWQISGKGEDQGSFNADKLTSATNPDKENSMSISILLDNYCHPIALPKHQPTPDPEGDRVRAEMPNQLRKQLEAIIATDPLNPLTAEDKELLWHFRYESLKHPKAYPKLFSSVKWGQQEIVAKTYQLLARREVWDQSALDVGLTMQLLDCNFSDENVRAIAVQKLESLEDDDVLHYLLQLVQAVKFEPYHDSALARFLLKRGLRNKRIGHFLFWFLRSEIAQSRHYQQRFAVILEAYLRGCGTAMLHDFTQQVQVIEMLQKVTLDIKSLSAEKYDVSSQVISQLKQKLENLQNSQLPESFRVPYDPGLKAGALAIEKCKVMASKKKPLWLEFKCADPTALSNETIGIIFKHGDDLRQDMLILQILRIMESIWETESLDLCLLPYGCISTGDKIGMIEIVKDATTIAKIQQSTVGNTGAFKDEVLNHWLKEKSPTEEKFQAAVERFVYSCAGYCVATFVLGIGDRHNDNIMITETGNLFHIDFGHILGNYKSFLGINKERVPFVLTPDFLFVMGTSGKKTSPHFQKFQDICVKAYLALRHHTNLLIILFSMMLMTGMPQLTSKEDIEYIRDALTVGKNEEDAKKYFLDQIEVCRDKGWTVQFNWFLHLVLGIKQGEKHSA
T3 sequence (P42338 whole entry): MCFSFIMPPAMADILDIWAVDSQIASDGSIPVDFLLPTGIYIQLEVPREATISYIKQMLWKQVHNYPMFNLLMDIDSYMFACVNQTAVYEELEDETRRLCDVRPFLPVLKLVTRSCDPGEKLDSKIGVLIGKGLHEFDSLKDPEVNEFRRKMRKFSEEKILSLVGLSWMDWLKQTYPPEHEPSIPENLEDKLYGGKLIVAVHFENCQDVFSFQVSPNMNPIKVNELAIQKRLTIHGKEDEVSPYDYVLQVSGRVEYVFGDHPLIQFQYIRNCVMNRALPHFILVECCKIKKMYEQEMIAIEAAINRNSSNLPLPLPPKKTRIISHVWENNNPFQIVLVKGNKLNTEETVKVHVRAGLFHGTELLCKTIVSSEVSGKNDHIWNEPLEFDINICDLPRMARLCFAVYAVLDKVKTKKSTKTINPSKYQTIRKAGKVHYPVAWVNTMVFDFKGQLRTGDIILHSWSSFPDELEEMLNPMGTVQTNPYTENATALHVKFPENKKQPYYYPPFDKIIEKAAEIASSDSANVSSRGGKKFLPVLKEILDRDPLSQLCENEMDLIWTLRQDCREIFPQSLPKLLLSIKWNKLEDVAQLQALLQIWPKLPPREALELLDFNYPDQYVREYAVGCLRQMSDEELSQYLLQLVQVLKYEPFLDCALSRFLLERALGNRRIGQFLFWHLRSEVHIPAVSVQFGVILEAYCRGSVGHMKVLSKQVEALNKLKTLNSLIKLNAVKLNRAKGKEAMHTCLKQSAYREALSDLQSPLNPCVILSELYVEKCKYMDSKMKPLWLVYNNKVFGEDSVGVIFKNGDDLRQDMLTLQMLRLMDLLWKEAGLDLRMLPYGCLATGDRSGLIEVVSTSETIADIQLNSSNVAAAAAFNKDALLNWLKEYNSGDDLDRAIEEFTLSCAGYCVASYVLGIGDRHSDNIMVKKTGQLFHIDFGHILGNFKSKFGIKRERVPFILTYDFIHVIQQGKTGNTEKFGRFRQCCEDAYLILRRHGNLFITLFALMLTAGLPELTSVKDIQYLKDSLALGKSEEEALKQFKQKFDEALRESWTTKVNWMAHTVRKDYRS
T3 sequence (P27986 whole entry partner): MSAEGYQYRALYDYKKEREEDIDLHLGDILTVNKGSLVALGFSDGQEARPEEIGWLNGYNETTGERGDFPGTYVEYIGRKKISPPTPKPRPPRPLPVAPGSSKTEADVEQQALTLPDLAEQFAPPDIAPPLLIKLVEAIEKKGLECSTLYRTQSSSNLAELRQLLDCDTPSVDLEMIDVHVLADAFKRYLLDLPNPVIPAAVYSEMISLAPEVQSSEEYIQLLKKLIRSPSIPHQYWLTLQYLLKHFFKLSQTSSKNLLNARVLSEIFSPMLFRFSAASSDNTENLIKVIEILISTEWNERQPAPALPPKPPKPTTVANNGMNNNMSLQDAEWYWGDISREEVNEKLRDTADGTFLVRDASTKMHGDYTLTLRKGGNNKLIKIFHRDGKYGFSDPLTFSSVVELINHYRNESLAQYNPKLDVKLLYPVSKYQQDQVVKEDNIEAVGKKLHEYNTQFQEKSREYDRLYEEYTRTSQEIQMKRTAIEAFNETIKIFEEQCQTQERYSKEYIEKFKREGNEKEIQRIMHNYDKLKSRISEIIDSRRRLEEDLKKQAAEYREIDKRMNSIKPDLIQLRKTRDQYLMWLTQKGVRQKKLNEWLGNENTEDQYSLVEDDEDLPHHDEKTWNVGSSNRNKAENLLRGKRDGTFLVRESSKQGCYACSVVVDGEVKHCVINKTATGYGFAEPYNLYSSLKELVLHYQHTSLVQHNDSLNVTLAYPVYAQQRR
T2 sequence (O00329 whole entry): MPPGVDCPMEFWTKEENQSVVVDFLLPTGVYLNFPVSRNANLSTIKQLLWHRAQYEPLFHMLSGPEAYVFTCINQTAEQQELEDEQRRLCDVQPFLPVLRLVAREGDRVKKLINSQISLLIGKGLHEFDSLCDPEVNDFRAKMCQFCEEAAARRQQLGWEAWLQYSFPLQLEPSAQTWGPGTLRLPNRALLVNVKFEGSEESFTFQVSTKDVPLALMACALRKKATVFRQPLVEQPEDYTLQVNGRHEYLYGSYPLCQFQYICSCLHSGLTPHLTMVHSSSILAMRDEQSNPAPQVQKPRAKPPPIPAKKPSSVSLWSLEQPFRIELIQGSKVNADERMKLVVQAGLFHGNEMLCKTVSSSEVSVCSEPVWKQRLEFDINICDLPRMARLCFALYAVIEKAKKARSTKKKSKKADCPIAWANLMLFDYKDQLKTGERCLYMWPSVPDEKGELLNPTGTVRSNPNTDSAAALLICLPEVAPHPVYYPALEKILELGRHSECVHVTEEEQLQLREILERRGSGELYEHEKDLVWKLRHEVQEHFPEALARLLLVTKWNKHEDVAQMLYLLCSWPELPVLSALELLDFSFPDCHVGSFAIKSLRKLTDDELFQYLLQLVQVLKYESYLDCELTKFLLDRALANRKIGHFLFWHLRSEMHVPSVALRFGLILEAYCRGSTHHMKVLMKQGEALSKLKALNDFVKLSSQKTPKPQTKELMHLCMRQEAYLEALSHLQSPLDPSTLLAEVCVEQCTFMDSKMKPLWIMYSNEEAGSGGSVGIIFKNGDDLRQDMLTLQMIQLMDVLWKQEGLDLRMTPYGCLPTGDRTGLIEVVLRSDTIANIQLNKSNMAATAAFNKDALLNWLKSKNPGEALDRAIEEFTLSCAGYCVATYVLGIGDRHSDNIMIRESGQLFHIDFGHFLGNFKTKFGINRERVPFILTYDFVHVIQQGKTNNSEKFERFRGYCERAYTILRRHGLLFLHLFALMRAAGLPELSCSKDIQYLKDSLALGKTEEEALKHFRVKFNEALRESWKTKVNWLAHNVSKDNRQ
T2 sequence (P27986 whole entry partner): as the sequence (P27986 whole entry partner) above

| IC50 (PI3Kγ; Table 2a, same assay) [nM] | IC50 (PI3Kδ; Table 2a, same assay) [nM] | IC50 (PI3Kβ; Table 2a, same assay) [nM] | IC50 (PI3Kγ; [1]) [nM] | IC50 (PI3Kδ; [1]) [nM] | IC50 (PI3Kβ; [1]) [nM] | IC50 (PI3Kγ) [nM] | IC50 (PI3Kδ) [nM] | SMILES |
| --- | --- | --- | --- | --- | --- | --- | --- | --- |
| > 10000 | 110 | 130 | – | – | – | – | – | C[C@H](Nc1nc(N)nc(N)c1Cl)c1nc2c(C(F)F)cc(F)cc2c(=O)n1-c1cc[nH]n1 [Compound 141, (S)-2-(1-((2,6-diamino-5-chloropyrimidin-4-yl)amino)ethyl)-8-(difluoromethyl)-6-fluoro-3-(1H-pyrazol-3-yl)quinazolin-4(3H)-one] |
| 436 | 1 | 3 | – | – | – | – | – | N#Cc1c(N)nc(N)nc1N[C@H](c1nc2c(F)cc(F)cc2c(=O)n1-c1cc[nH]n1)C1CC1 [Compound 170, (S)-2,4-diamino-6-((cyclopropyl(6,8-difluoro-4-oxo-3-(1H-pyrazol-3-yl)-3,4-dihydroquinazolin-2-yl)methyl)amino)pyrimidine-5-carbonitrile] |
| – | – | – | 130 | 1 | 5 | – | – | O=c1c2c(Cl)cccc2nc([C@@H](Nc2ncnc3scnc23)C2CC2)n1-c1cn[nH]c1 [Compound 25, (S)-5-chloro-2-(cyclopropyl(thiazolo[5,4-d]pyrimidin-7-ylamino)methyl)-3-(1H-pyrazol-4-yl)quinazolin-4(3H)-one] |
| – | – | – | 9000 | 340 | 650 | – | – | CC[C@H](Nc1nc(N)nc2[nH]nc(Br)c12)c1nc2cccc(C#N)c2c(=O)n1-c1cn[nH]c1 [Compound 79, (S)-2-(1-((6-amino-3-bromo-1H-pyrazolo[3,4-d]pyrimidin-4-yl)amino)propyl)-4-oxo-3-(1H-pyrazol-4-yl)-3,4-dihydroquinazoline-5-carbonitrile] |
| – | – | – | – | 8 | 9 | > 10000 | – | O=c1c2c(Cl)cccc2nc([C@H](COCc2ccccc2)Nc2ncnc3scnc23)n1-c1cc[nH]n1 [Compound 48, (R)-2-(2-(benzyloxy)-1-(thiazolo[5,4-d]pyrimidin-7-ylamino)ethyl)-5-chloro-3-(1H-pyrazol-3-yl)quinazolin-4(3H)-one] |
| – | – | – | 1700 | 6 | 32 | – | – | Nc1nc(N)c(Cl)c(N[C@H](c2nc3cccc(Cl)c3c(=O)n2-c2cn[nH]c2)C2CC2)n1 [Compound 19, (S)-5-chloro-2-(cyclopropyl((2,6-diamino-5-chloropyrimidin-4-yl)amino)methyl)-3-(1H-pyrazol-4-yl)quinazolin-4(3H)-one] |
| – | – | – | 160 | 1 | 1 | – | – | N#Cc1c(N)nc(N)nc1N[C@H](c1nc2c(Cl)ccc(Cl)c2c(=O)n1-c1cn[nH]c1)C1CC1 [Compound 31, (S)-2,4-diamino-6-((cyclopropyl(5,8-dichloro-4-oxo-3-(1H-pyrazol-4-yl)-3,4-dihydroquinazolin-2-yl)methyl)amino)pyrimidine-5-carbonitrile] |
| > 10000 | 190 | 130 | – | – | – | – | – | Nc1nc(N)c(Cl)c(N[C@H](c2nc3c(C(F)F)cc(F)cc3c(=O)n2-c2cc[nH]n2)C2CC2)n1 [Compound 144, (S)-2-(cyclopropyl((2,6-diamino-5-chloropyrimidin-4-yl)amino)methyl)-8-(difluoromethyl)-6-fluoro-3-(1H-pyrazol-3-yl)quinazolin-4(3H)-one] |
| – | – | – | – | 4 | 18 | > 10000 | – | CC[C@H](Nc1ncnc2scnc12)c1nc2c(Cl)ccc(Cl)c2c(=O)n1-c1cc[nH]n1 [Compound 46, (S)-5,8-dichloro-3-(1H-pyrazol-3-yl)-2-(1-(thiazolo[5,4-d]pyrimidin-7-ylamino)propyl)quinazolin-4(3H)-one] |
| – | – | – | – | 4 | 15 | > 10000 | – | CC[C@H](Nc1ncnc2ccc(Cl)nc12)c1nc2c(Cl)ccc(Cl)c2c(=O)n1-c1cc[nH]n1 [Compound 45, (S)-5,8-dichloro-2-(1-((6-chloropyrido[3,2-d]pyrimidin-4-yl)amino)propyl)-3-(1H-pyrazol-3-yl)quinazolin-4(3H)-one] |
| 6600 | 19 | 37 | – | – | – | – | – | Nc1nc(N)c(Cl)c(N[C@H](c2nc3cccc(C(F)(F)F)c3c(=O)n2-c2cc[nH]n2)C2CC2)n1 [Compound 210, (S)-2-(cyclopropyl((2,6-diamino-5-chloropyrimidin-4-yl)amino)methyl)-3-(1H-pyrazol-3-yl)-5-(trifluoromethyl)quinazolin-4(3H)-one] |
| 760 | 3 | 2 | – | – | – | – | – | C[C@H](Nc1nc(N)nc(N)c1C#N)c1nc2ccccc2c(=O)n1-c1cc[nH]n1 [Compound 274, (S)-2,4-diamino-6-((1-(4-oxo-3-(1H-pyrazol-3-yl)-3,4-dihydroquinazolin-2-yl)ethyl)amino)pyrimidine-5-carbonitrile] |
| – | – | – | 210 | 2 | 4 | – | – | N#Cc1c(N)nc(N)nc1N[C@@H](c1ccccc1)c1nc2cccc(Cl)c2c(=O)n1-c1cn[nH]c1 [Compound 106, (S)-2,4-diamino-6-(((5-chloro-4-oxo-3-(1H-pyrazol-4-yl)-3,4-dihydroquinazolin-2-yl)(phenyl)methyl)amino)pyrimidine-5-carbonitrile] |
| – | – | – | – | – | 97 | > 10000 | 2 | CC[C@H](Nc1ncnc2[nH]cc(F)c12)c1nc2c(Cl)ccc(Cl)c2c(=O)n1-c1cc[nH]n1 [Compound 59, (S)-5,8-dichloro-2-(1-((5-fluoro-7H-pyrrolo[2,3-d]pyrimidin-4-yl)amino)propyl)-3-(1H-pyrazol-3-yl)quinazolin-4(3H)-one] |
| – | – | – | 1700 | 5 | 140 | – | – | CC[C@H](Nc1ncnc2scnc12)c1nc2cccc(Cl)c2c(=O)n1-c1n[nH]cc1Br [Compound 77, (S)-3-(4-bromo-1H-pyrazol-3-yl)-5-chloro-2-(1-(thiazolo[5,4-d]pyrimidin-7-ylamino)propyl)quinazolin-4(3H)-one] |
| 260 | 0.6 | 1 | – | – | – | – | – | C[C@H](Nc1nc(N)nc(N)c1C#N)c1nc2c(F)cc(F)cc2c(=O)n1-c1cc[nH]n1 [Compound 169, (S)-2,4-diamino-6-((1-(6,8-difluoro-4-oxo-3-(1H-pyrazol-3-yl)-3,4-dihydroquinazolin-2-yl)ethyl)amino)pyrimidine-5-carbonitrile] |
| 2000 | 2 | 2 | – | – | – | – | – | N#Cc1c(N)nc(N)nc1N[C@H](c1nc2cccc(Cl)c2c(=O)n1-c1cc[nH]n1)C1CCC1 [Compound 128, (S)-2,4-diamino-6-(((5-chloro-4-oxo-3-(1H-pyrazol-3-yl)-3,4-dihydroquinazolin-2-yl)(cyclobutyl)methyl)amino)pyrimidine-5-carbonitrile] |
| 71 | 2 | 8 | – | – | – | – | – | C[C@H](Nc1nc(N)nc(N)c1C#N)c1nc2ccc(F)c(Cl)c2c(=O)n1-c1cn[nH]c1 [Compound 264, (S)-2,4-diamino-6-((1-(5-chloro-6-fluoro-4-oxo-3-(1H-pyrazol-4-yl)-3,4-dihydroquinazolin-2-yl)ethyl)amino)pyrimidine-5-carbonitrile] |

| SMILES | IC50 (PI3Kγ; Table 2a, same assay) [nM] | IC50 (PI3Kδ; Table 2a, same assay) [nM] | IC50 (PI3Kβ; Table 2a, same assay) [nM] | IC50 (PI3Kγ; [1]) [nM] | IC50 (PI3Kδ; [1]) [nM] | IC50 (PI3Kβ; [1]) [nM] | IC50 (PI3Kγ) [nM] | IC50 (PI3Kδ) [nM] |
| --- | --- | --- | --- | --- | --- | --- | --- | --- |
| C[C@H](Nc1nc(N)nc(N)c1Cl)c1nc2cc(F)cc(Cl)c2c(=O)n1-c1cc[nH]n1 [Compound 238, (S)-5-chloro-2-(1-((2,6-diamino-5-chloropyrimidin-4-yl)amino)ethyl)-7-fluoro-3-(1H-pyrazol-3-yl)quinazolin-4(3H)-one] | > 10000 | 15 | 21 | – | – | – | – | – |
